Assay results from PMC12053997, “D-enantiomeric antibiofilm peptides effective against anaerobic Cutibacterium acnes biofilm” (Microbiology Spectrum, 2025).
In brackets after ≈: the same amount, converted by molar mass. Where two headings read alike, the source gives them in different places. One block for each molecule: values may come before it. Where a SMILES comes first, the peptide text is derived from it. Where no end group is shown, it is not given here. [ ]: non-standard residue; d: D form.

Experiments:
[1] = system: C. acnes strains (C2, C5, PJI2, PJI8); test: microbe, parasite or virus in culture
Protocol: (§1) C. acnes strains were isolated on Columbia agar containing 5% sheep blood (BioRad, Hercules, California, USA) and cultivated in Brain Heart Infusion (BHI) broth (BioRad, Hercules, California, USA) for 5 days, under anaerobic conditions using the GenBox system (Biomérieux, Marcy l’Etoile, France), at 37°C. For all assays, one colony of isolated C. acnes strains was inoculated in a 1.5 mL vial containing 1.5 mL of BHI. After 5–6 days of incubation (stationary phase reached after 4 days) at 37°C, the absorbance (at 600 nm) of the bacterial culture was adjusted to 1. The bacterial suspension was then diluted in BHI broth at 1/100 (OD: 0.01) and 1 mL of this suspension was inoculated in each well of 24- or 48-well plates.
(§2) Peptides were added to a 48-well plate at the desired concentrations in BHI medium and diluted bacteria were inoculated as described in the “Bacterial Strain Culture” section. Plates were incubated at 37°C, under anaerobic conditions using the GenBox system, for 5–6 days. The effect of the peptide on planktonic growth was determined by measuring the MIC which was defined as the concentration in the well containing the minimal amount of compound that leads to the absence of visible bacterial growth, according to Wiegand et al. ([38]). […] Finally, 48-well plates containing cultures with or without peptides were washed three times with water to remove unattached bacteria. Adhered bacteria were stained with 1 mL of 0.2% crystal violet for 20 min, then washed with water, and crystal violet was extracted with 95% ethanol (vol/vol). The quantity of biofilm (biomass) was analyzed by measuring the absorbance of the crystal violet suspension at 595 nm using the SpectroStar nano spectrophotometer (BMG Labtech, Ortenberg, Germany). The Minimal Biofilm Inhibition Concentration (MBIC) was defined as the concentration in the well containing the minimal quantity of peptide where the crystal violet absorbance, corrected by the blank, was null. Experiments were performed three independent times in technical duplicate for each strain.

[2] = system: C. acnes strains (C2, C5, PJI2, PJI8)
Protocol: as §1, §2

MICs ([1]; strains (C2, C5, PJI2, PJI8)): 16 to 32 µg/mL
Molecule: CC[C@@H](C)[C@@H](NC(=O)[C@@H](CCCNC(=N)N)NC(=O)[C@H](N)CCCCN)C(=O)N[C@H](CCCNC(=N)N)C(=O)N[C@H](Cc1c[nH]c2ccccc12)C(=O)N[C@@H](C(=O)N[C@@H](C(=O)N[C@H](CC(C)C)C(=O)N[C@H](CCCNC(=N)N)C(=O)N[C@@H](C(=O)N[C@@H](C(=O)N[C@H](CCCNC(=N)N)C(N)=O)[C@H](C)CC)C(C)C)[C@H](C)CC)C(C)C [AB101-D] (H-[dK][dR][dI][dR][dW][dV][dI][dL][dR][dV][dI][dR]-NH2)

Molecule: VRLIVAVRIWRR-NH2 [Peptide 1018, reference compound]
MIC ([1]; strain C2, BHI, anaerobic, 37°C, 5–6 days, n = 3 (n = 2 for 1018, AB008-D)): >64 µg/mL
MBC ([1]; strain C2, no colonies on blood agar after 5–6 days anaerobic, n = 3 (n = 2 for 1018, AB008-D)): >64 µg/mL
MIC ([1]; strain C5, BHI, anaerobic, 37°C, 5–6 days, n = 3 (n = 2 for 1018, AB008-D)): >64 µg/mL
MBC ([1]; strain C5, no colonies on blood agar after 5–6 days anaerobic, n = 3 (n = 2 for 1018, AB008-D)): >64 µg/mL
MIC ([1]; strain PJI2, BHI, anaerobic, 37°C, 5–6 days, n = 3 (n = 2 for 1018, AB008-D)): >64 µg/mL
MBC ([1]; strain PJI2, no colonies on blood agar after 5–6 days anaerobic, n = 3 (n = 2 for 1018, AB008-D)): >64 µg/mL
MIC ([1]; strain PJI8, BHI, anaerobic, 37°C, 5–6 days, n = 3 (n = 2 for 1018, AB008-D)): >64 µg/mL
MBC ([1]; strain PJI8, no colonies on blood agar after 5–6 days anaerobic, n = 3 (n = 2 for 1018, AB008-D)): >64 µg/mL
MBIC ([2]; strain C2, crystal violet absorbance 595 nm null, n = 3 (n = 2 for 1018, AB008-D)): 32 µg/mL
MBIC ([2]; strain C5, crystal violet absorbance 595 nm null, n = 3 (n = 2 for 1018, AB008-D)): 32 µg/mL
MBIC ([2]; strain PJI2, crystal violet absorbance 595 nm null, n = 3 (n = 2 for 1018, AB008-D)): 32 µg/mL
MBIC ([2]; strain PJI8, crystal violet absorbance 595 nm null, n = 3 (n = 2 for 1018, AB008-D)): 32 µg/mL

MICs ([1]; strains (C2, C5, PJI2, PJI8)): 16 to 32 µg/mL
Molecule: CC[C@@H](C)[C@@H](NC(=O)[C@@H](CCCNC(=N)N)NC(=O)[C@@H](CCCNC(=N)N)NC(=O)[C@@H](Cc1c[nH]c2ccccc12)NC(=O)[C@@H](CCC(N)=O)NC(=O)[C@H](N)C(C)C)C(=O)N[C@H](CC(C)C)C(=O)N[C@@H](C(=O)N[C@H](CCCNC(=N)N)C(=O)N[C@@H](C(=O)N[C@@H](C(=O)N[C@H](CCCNC(=N)N)C(N)=O)[C@H](C)CC)C(C)C)C(C)C [AB009-D] (H-[dV][dQ][dW][dR][dR][dI][dL][dV][dR][dV][dI][dR]-NH2)

MICs ([1]; strains (C2, C5, PJI2, PJI8)): 16 to 32 µg/mL
Molecule: CC[C@@H](C)[C@@H](NC(=O)[C@@H](C)NC(=O)[C@@H](CCCNC(=N)N)NC(=O)[C@@H](Cc1c[nH]c2ccccc12)NC(=O)[C@@H](CCC(N)=O)NC(=O)[C@H](N)C(C)C)C(=O)N[C@H](CCCNC(=N)N)C(=O)N[C@@H](C(=O)N[C@H](CCCNC(=N)N)C(=O)N[C@@H](C(=O)N[C@@H](C(=O)N[C@H](CCCNC(=N)N)C(N)=O)[C@H](C)CC)C(C)C)C(C)C [DJK5, reference compound] (H-[dV][dQ][dW][dR][dA][dI][dR][dV][dR][dV][dI][dR]-NH2)

MIC ([1]; Cutibacterium acnes): 0.008 µg/mL (≈ 9.72 nM)
MIC ([1]; strain C5, n=3): 0.008 µg/mL (≈ 9.72 nM)
MIC ([1]; strain PJI2, n=3): 0.008 µg/mL (≈ 9.72 nM)
MIC ([1]; strain PJI8, n=3): 0.008 µg/mL (≈ 9.72 nM)
Molecule: CO[C@H]1/C=C/O[C@@]2(C)Oc3c(C)c(O)c4c(O)c(c(/C=N/N5CCN(C)CC5)c(O)c4c3C2=O)NC(=O)/C(C)=C\C=C\[C@H](C)[C@H](O)[C@@H](C)[C@@H](O)[C@@H](C)[C@H](OC(C)=O)[C@@H]1C [Rifampicin, rifampicin, reference compound]
MBC ([1]; Cutibacterium acnes, strain C2, n=3): > 0.064 µg/mL
MBC ([1]; Cutibacterium acnes, strain C5, n=3): > 0.064 µg/mL
MBC ([1]; Cutibacterium acnes, strain PJI2, n=3): > 0.064 µg/mL
MBC ([1]; Cutibacterium acnes, strain PJI8, n=3): 0.008 to 0.016 µg/mL (≈ 9.72 to 19.4 nM)
MBIC ([2]; strain C2, n=3): 0.002 to 0.004 µg/mL
MBIC ([2]; strain C5, n=3): 0.008 µg/mL
MBIC ([2]; strain PJI2, n=3): 0.004 to 0.008 µg/mL
MBIC ([2]; strain PJI8, n=3): 0.008 µg/mL

Molecule: CC[C@@H](C)[C@@H](NC(=O)[C@@H](CCCNC(=N)N)NC(=O)[C@@H](CCCNC(=N)N)NC(=O)[C@@H](Cc1c[nH]c2ccccc12)NC(=O)[C@@H](CCC(N)=O)NC(=O)[C@H](N)C(C)C)C(=O)N[C@@H](C(=O)N[C@@H](C(=O)N[C@H](CCCNC(=N)N)C(=O)N[C@@H](C(=O)N[C@@H](C(=O)N[C@H](CCCNC(=N)N)C(N)=O)[C@H](C)CC)C(C)C)C(C)C)[C@H](C)CC [AB008-D] (H-[dV][dQ][dW][dR][dR][dI][dI][dV][dR][dV][dI][dR]-NH2)
MBC ([1]; strains (C2, C5, PJI2, PJI8)): >64 µg/mL
MBIC ([2]; strains (C2, C5, PJI2, PJI8)): 32 µg/mL
